Measured values published in US9365576B2, “Pyrrolopyrrolidinone compounds” (Novartis AG, priority 2012, dated 2016).

What follows are molecules tested against human MDM2 protein (amino acids 2-188) (Homo sapiens (Human), UniProt Q00987) (assay: TR-FRET assay, p53-MDM2 Assay 2 (modified)). Conditions: TR-FRET; 0.1 nM MDM2, 0.1 nM Europium labeled streptavidin, Tecan genios Pro reader; read-out: IC50 p53-MDM2 Assay 2.
human MDM2 protein (amino acids 2-188), sequence (Q00987 2-188): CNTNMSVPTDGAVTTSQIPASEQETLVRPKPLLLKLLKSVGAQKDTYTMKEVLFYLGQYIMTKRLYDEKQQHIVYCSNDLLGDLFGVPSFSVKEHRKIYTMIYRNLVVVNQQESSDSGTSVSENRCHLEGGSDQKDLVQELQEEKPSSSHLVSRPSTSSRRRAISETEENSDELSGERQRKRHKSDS
Assay type: binding
Experimental: The inhibition of p53-MDM2 and p53-MDM4 interactions is measured by time resolved fluorescence energy transfer (TR-FRET). Fluorescence energy transfer (or Foerster resonance energy transfer) describes an energy transfer between donor and acceptor fluorescent molecules. For this assay, human MDM2 protein (amino acids 2-188) and human MDM4 protein (amino acids 2-185), tagged with a C-terminal biotin moiety, are used in combination with a Europium labeled streptavidin (Perkin Elmer, Inc., Waltham, Mass., USA) serving as the donor fluorophore. The p53 derived, Cy5 labeled peptide Cy5-[…] (p53 aa18-26) is the energy acceptor. Upon excitation of the donor molecule at 340 nm, binding interaction between MDM2 or MDM4 and the p53 peptide induces energy transfer and enhanced response at the acceptor emission wavelength at 665 nm. […] The ratiometric FRET assay readout is calculated from the raw data of the two distinct fluorescence signals measured in time resolved mode (fluorescence 665 nm/fluorescence 620 nm×1000).
After addition of 1.25 nM MDM2-biotinylated or 2.5 nM MDM4-biotinylated (internal preparations), and 0.625 nM Europium labeled streptavidin (Perkin Elmer), the solution is pre-incubated for 15 minutes at room temperature, then 10 nM Cy5-p53 peptide (internal preparation) is added before an incubation at room temperature for 15 minutes prior to reading the plate. For measurement of samples, a Victor II microplate reader (Perkin Elmer) is used with the following settings: Excitation 340 nm, Emission Donor 620 nm and Emission Acceptor 665 nm. IC50 values are calculated by curve fitting using XLfit. If not specified, reagents are purchased from Sigma-Aldrich Chemie GmBH, Buchs, Switzerland.
COc1ccc(CC(=O)O)cc1-c1cc2c(n1C(C)C)[C@@H](c1ccc(Cl)cc1)N(c1cc(Cl)ccc1C)C2=O [Example 92, {3-[(R)-5-(5-Chloro-2-methyl-phenyl)-6-(4-chloro-phenyl)-1-isopropyl-4-oxo-1,4,5,6-tetrahydro-pyrrolo[3,4-b]pyrrol-2-yl]-4-methoxy-phenyl}-acetic acid] gave an IC50 of 41900 pM. With COc1ncc(-c2cc3c(n2C(C)C)C(c2ccc(C#N)cc2)N(c2c(F)c(C)nn2C)C3=O)c(OC)n1 (centres unmarked) [Example 211, 4-[2-(2,4-Dimethoxy-pyrimidin-5-yl)-5-(4-fluoro-2,5-dimethyl-2H-pyrazol-3-yl)-1-isopropyl-4-oxo-1,4,5,6-tetrahydro-pyrrolo[3,4-b]pyrrol-6-yl]-benzonitrile] the IC50 was 1680 pM. Molecule COc1ncc(-c2cc3c(n2C(C)C)C(c2ccc(Cl)cn2)N(c2cc(Cl)cn(C)c2=O)C3=O)c(OC)n1 (centres unmarked) [Example 213, 5-(5-Chloro-1-methyl-2-oxo-1,2-dihydro-pyridin-3-yl)-6-(5-chloro-pyridin-2-yl)-2-(2,4-dimethoxy-pyrimidin-5-yl)-1-isopropyl-5,6-dihydro-1H-pyrrolo[3,4-b]pyrrol-4-one] has an IC50 of 14200 pM. With COc1cn(C)c(=O)cc1-c1cc2c(n1C(C)C)C(c1ccc(Cl)cc1)N(c1cc(C)nn1C)C2=O (centres unmarked) [Example 178, 6-(4-Chloro-phenyl)-5-(2,5-dimethyl-2H-pyrazol-3-yl)-1-isopropyl-2-(5-methoxy-1-methyl-2-oxo-1,2-dihydro-pyridin-4-yl)-5,6-dihydro-1H-pyrrolo[3,4-b]pyrrol-4-one] the IC50 was 1070 pM. COc1ccc(CC(=O)O)cc1-c1cc2c(n1C(C)C)[C@H](c1ccc(Cl)cc1)N(c1cc(Cl)ccc1C)C2=O [Example 91, {3-[(S)-5-(5-Chloro-2-methyl-phenyl)-6-(4-chloro-phenyl)-1-isopropyl-4-oxo-1,4,5,6-tetrahydro-pyrrolo[3,4-b]pyrrol-2-yl]-4-methoxy-phenyl}-acetic acid] showed an IC50 of 61 pM. Work on COC[C@@H](C)n1c(-c2cnc(OC)nc2OC)cc2c1C(c1ccc(C#N)cc1)N(c1ccc(F)c(Cl)c1)C2=O (stereo partly drawn) [Example 222, 4-[(R,S)-5-(3-Chloro-4-fluoro-phenyl)-2-(2,4-dimethoxy-pyrimidin-5-yl)-1-((R)-2-methoxy-1-methyl-ethyl)-4-oxo-1,4,5,6-tetrahydro-pyrrolo[3,4-b]pyrrol-6-yl]-benzonitrile] yielded an IC50 of 303 pM. In the case of CNc1ncc(-c2cc3c(n2C(C)C)C(c2ccc(C#N)cc2)N(c2cc(Cl)c[nH]c2=O)C3=O)c(OC)n1 (centres unmarked) [Example 128, 4-[5-(5-Chloro-2-oxo-1,2-dihydro-pyridin-3-yl)-1-isopropyl-2-(4-methoxy-2-methylamino-pyrimidin-5-yl)-4-oxo-1,4,5,6-tetrahydro-pyrrolo[3,4-b]pyrrol-6-yl]-benzonitrile], the IC50 is reported as 527 pM. With COc1nc(N)ncc1-c1cc2c(n1C(C)C)C(c1ccc(Cl)cc1)N(c1c[nH]c(=O)c(Cl)c1)C2=O (centres unmarked) [Example 138, 2-(2-Amino-4-methoxy-pyrimidin-5-yl)-5-(5-chloro-6-oxo-1,6-dihydro-pyridin-3-yl)-6-(4-chloro-phenyl)-1-isopropyl-5,6-dihydro-1H-pyrrolo[3,4-b]pyrrol-4-one] the IC50 was 341 pM. COc1cccnc1-c1cc2c(n1C(C)C)C(c1ccc(Cl)cc1)N(c1cc(Cl)ccc1C)C2=O (centres unmarked) [Example 113, 5-(5-Chloro-2-methyl-phenyl)-6-(4-chloro-phenyl)-1-isopropyl-2-(3-methoxy-pyridin-2-yl)-5,6-dihydro-1H-pyrrolo[3,4-b]pyrrol-4-one] was tested, and the IC50 was 216 pM. For COc1ccc(C(=O)NCCS(C)(=O)=O)cc1-c1cc2c(n1C(C)C)C(c1ccc(Cl)cc1)N(c1cc(Cl)ccc1C)C2=O (centres unmarked) [Example 36, 3-[5-(5-Chloro-2-methyl-phenyl)-6-(4-chloro-phenyl)-1-isopropyl-4-oxo-1,4,5,6-tetrahydro-pyrrolo[3,4-b]pyrrol-2-yl]-N-(2-methanesulfonyl-ethyl)-4-methoxy-benzamide], the IC50 was 115 pM. COc1cn(C)c(=O)cc1-c1cc2c(n1C(C)C)C(c1ccc(Cl)cc1)N(c1c(F)c(C)nn1C)C2=O (centres unmarked) [Example 208, 6-(4-Chloro-phenyl)-5-(4-fluoro-2,5-dimethyl-2H-pyrazol-3-yl)-1-isopropyl-2-(5-methoxy-1-methyl-2-oxo-1,2-dihydro-pyridin-4-yl)-5,6-dihydro-1H-pyrrolo[3,4-b]pyrrol-4-one] showed an IC50 of 861 pM. Molecule COc1nc(N(C)C)ncc1-c1cc2c(n1C(C)C)[C@H](c1ccc(Cl)c(F)c1)N(c1cc(Cl)c[nH]c1=O)C2=O [Example 227, (S)-6-(4-Chloro-3-fluoro-phenyl)-5-(5-chloro-2-oxo-1,2-dihydro-pyridin-3-yl)-2-(2-dimethylamino-4-methoxy-pyrimidin-5-yl)-1-isopropyl-5,6-dihydro-1H-pyrrolo[3,4-b]pyrrol-4-one] has an IC50 of 71 pM. COc1nc(N(C)C)ncc1-c1cc2c(n1C(C)C)C(c1ccc(Cl)c(F)c1)N(c1cc(Cl)cn(C)c1=O)C2=O (centres unmarked) [Example 197, 6-(4-Chloro-3-fluoro-phenyl)-5-(5-chloro-1-methyl-2-oxo-1,2-dihydro-pyridin-3-yl)-2-(2-dimethylamino-4-methoxy-pyrimidin-5-yl)-1-isopropyl-5,6-dihydro-1H-pyrrolo[3,4-b]pyrrol-4-one] was tested, and the IC50 was 356 pM. With COc1ccc(C#N)cc1-c1cc2c(n1C(C)C)C(c1ccc(Cl)cc1)N(c1cc(Cl)ccc1C)C2=O (centres unmarked) [Example 17, 3-[5-(5-Chloro-2-methyl-phenyl)-6-(4-chloro-phenyl)-1-isopropyl-4-oxo-1,4,5,6-tetrahydro-pyrrolo[3,4-b]pyrrol-2-yl]-4-methoxy-benzonitrile] the IC50 was 281 pM. For COC[C@@H](C)n1c(-c2cnc(N)nc2OC)cc2c1[C@H](c1ccc(Cl)cc1)N(c1ccc(F)c(Cl)c1)C2=O [Example 229], the IC50 was 78 pM. With COc1ccncc1-c1cc2c(n1C(C)C)C(c1ccc(Cl)cc1C)N(c1cccc(Cl)c1F)C2=O (centres unmarked) [Example 6, 5-(3-Chloro-2-fluoro-phenyl)-6-(4-chloro-2-methyl-phenyl)-1-isopropyl-2-(4-methoxy-Pyridin-3-yl)-5,6-dihydro-1H-pyrrolo[3,4-b]pyrrol-4-one] the IC50 was 172 pM. Work on COc1ccncc1-c1cc2c(n1C(C)C)C(c1ccc(Cl)cc1)N(c1cc(Cl)ccc1C)C2=O (centres unmarked) [Example 13, 5-(5-Chloro-2-methyl-phenyl)-6-(4-chloro-phenyl)-1-isopropyl-2-(4-methoxy-pyridin-3-yl)-5,6-dihydro-1H-pyrrolo[3,4-b]pyrrol-4-one] yielded an IC50 of 176 pM. For COc1nc(N(C)C)ncc1-c1cc2c(n1C(C)C)C(c1ccc(Cl)cc1C)N(c1cc(Cl)c(=O)n(C)c1)C2=O (centres unmarked) [Example 147, 5-(5-Chloro-1-methyl-6-oxo-1,6-dihydro-pyridin-3-yl)-6-(4-chloro-2-methyl-phenyl)-2-(2-dimethylamino-4-methoxy-pyrimidin-5-yl)-1-isopropyl-5,6-dihydro-1H-pyrrolo[3,4-b]pyrrol-4-one], the IC50 was 164 pM. Work on COc1ncc(-c2cc3c(n2C(C)C)[C@H](c2ccc(Cl)cc2C)N(c2cc(Cl)c(=O)n(C)c2)C3=O)c(OC)n1 [Example 160, (S)-5-(5-Chloro-1-methyl-6-oxo-1,6-dihydro-pyridin-3-yl)-6-(4-chloro-2-methyl-phenyl)-2-(2,4-dimethoxy-pyrimidin-5-yl)-1-isopropyl-5,6-dihydro-1H-pyrrolo[3,4-b]pyrrol-4-one] yielded an IC50 of 144 pM. Work on COc1nc(N(C)C)ncc1-c1cc2c(n1C(C)C)C(c1ccc(C#N)cc1)N(c1c[nH]c(=O)c(Cl)c1)C2=O (centres unmarked) [Example 136, 4-[5-(5-Chloro-6-oxo-1,6-dihydro-pyridin-3-yl)-2-(2-dimethylamino-4-methoxy-pyrimidin-5-yl)-1-isopropyl-4-oxo-1,4,5,6-tetrahydro-pyrrolo[3,4-b]pyrrol-6-yl]-benzonitrile] yielded an IC50 of 131 pM. COc1nc(N(C)C)ncc1-c1cc2c(n1C(C)C)C(c1ccc(C#N)c(F)c1)N(c1cc(Cl)cn(C)c1=O)C2=O (centres unmarked) [Example 199, 4-[5-(5-Chloro-1-methyl-2-oxo-1,2-dihydro-pyridin-3-yl)-2-(2-dimethylamino-4-methoxy-pyrimidin-5-yl)-1-isopropyl-4-oxo-1,4,5,6-tetrahydro-pyrrolo[3,4-b]pyrrol-6-yl]-2-fluoro-benzonitrile] gave an IC50 of 257 pM. In the case of COc1nc(N)ncc1-c1cc2c(n1C(C)C)C(c1ccc(C#N)cc1)N(c1cc(Cl)cn(C)c1=O)C2=O (centres unmarked) [Example 129, 4-[2-(2-Amino-4-methoxy-pyrimidin-5-yl)-5-(5-chloro-1-methyl-2-oxo-1,2-dihydro-pyridin-3-yl)-1-isopropyl-4-oxo-1,4,5,6-tetrahydro-pyrrolo[3,4-b]pyrrol-6-yl]-benzonitrile], the IC50 is reported as 5660 pM. For CNc1ncc(-c2cc3c(n2C(C)C)C(c2ccc(Cl)cc2C)N(c2cc(Cl)c(=O)n(C)c2)C3=O)c(OC)n1 (centres unmarked) [Example 151, 5-(5-Chloro-1-methyl-6-oxo-1,6-dihydro-pyridin-3-yl)-6-(4-chloro-2-methyl-phenyl)-1-isopropyl-2-(4-methoxy-2-methylamino-pyrimidin-5-yl)-5,6-dihydro-1H-pyrrolo[3,4-b]pyrrol-4-one], the IC50 was 243 pM.
